Laboratory results taken from patent US20070128217A1 (priority 2003, published 2007).

How the values were obtained:
[1] = system: control sera (pooled serum of ten healthy LUMC hospital workers; commercial negative donor pooled serum from the Dutch bloodbank); type: binding, human; set-up: Binding of Control serum LUMC to linear peptides / Binding of Control serum Blood-bank to linear peptides / Binding of Control serum LUMC to looped peptides / Binding of Control Serum Blood-Bank to Looped peptides / Binding of Control serum LUMC to linear peptides of the protein M of SARS-CoV Urbani / Binding of Control serum Blood-bank to linear peptides of the protein M of SARS-CoV Urbani / Binding of Control serum LUMC to looped peptides of the protein M of SARS-CoV Urbani / Binding of Control Serum Blood-Bank to Looped peptides of the protein M of SARS-CoV Urbani: unit not given here
[2] = system: rabbit serum obtained by immunizing a rabbit with the SARS-CoV strain Frankfurt 1; type: binding; set-up: Binding of a rabbit serum to linear peptides / Binding of a rabbit serum to looped peptides / Rabbit serum linear peptides / Rabbit serum looped peptides / Binding of a rabbit serum to linear peptides of protein N of SARS-CoV Urbani (Rabbit serum linear peptides) / Binding of a rabbit serum to looped/cyclic peptides of protein N of SARS-CoV Urbani (Rabbit serum looped peptides): unit not given here
[3] = system: antibodies in sera from SARS patients (sera 1a, 1b, 2, 6, 37, 62, London, SARS-yellow, SARS-green); type: binding, human; set-up: Binding of serum 6 to linear peptides of protein X1 of SARS-CoV Urbani / Binding of serum 37 to linear peptides of protein X1 of SARS-CoV Urbani / Binding of serum 6 to looped/cyclic peptide (PEPSCAN-ELISA) / Binding of serum 37 to looped/cyclic peptide (PEPSCAN-ELISA) / Binding of serum 37 to looped/cyclic peptides of protein X1 of SARS-CoV Urbani / Binding of serum 6 to linear peptides of protein X2 / Binding of serum 37 to linear peptides of protein X2 / Binding of serum 37 to looped/cyclic peptides of protein X2 of SARS-CoV Urbani / Binding of serum 6 to linear peptides of protein M of SARS-CoV Urbani / Binding of serum 37 to linear peptides of protein M of SARS-CoV Urbani / Binding of serum 6 to looped/cyclic peptides of protein M of SARS-CoV Urbani / Binding of serum 37 to looped/cyclic peptides of protein M of SARS-CoV Urbani / Binding of serum 6 to linear peptides of protein X3 of SARS-CoV Urbani / Binding of serum 37 to linear peptides of protein X3 of SARS-CoV Urbani / Binding of serum 37 to looped/cyclic peptides of protein X3 of SARS-CoV Urbani / Binding of serum 6 to linear peptides of protein X4 of SARS-CoV Urbani / Binding of serum 37 to linear peptides of protein X4 of SARS-CoV Urbani / Binding of serum 37 to looped/cyclic peptides of protein X4 of SARS-CoV Urbani / Binding of serum 6 to linear peptides of protein X5 of SARS-CoV Urbani / Binding of serum 37 to linear peptides of protein X5 of SARS-CoV Urbani / Binding of serum 37 to looped/cyclic peptides of protein X5 of SARS-CoV Urbani / Binding of serum 6 to linear peptides of protein N of SARS-CoV Urbani / Binding of serum 37 to linear peptides of protein N of SARS-CoV Urbani / Binding of serum 6 to linear peptide (PEPSCAN-ELISA) / Binding of serum 1a to looped/cyclic peptides of protein N of SARS-CoV Urbani / Binding of serum 1b to looped/cyclic peptides of protein N of SARS-CoV Urbani / Binding of serum 2 to looped/cyclic peptides of protein N of SARS-CoV Urbani / Binding of serum 6 to looped/cyclic peptides of protein N of SARS-CoV Urbani / Binding of serum 37 to looped/cyclic peptides of protein N of SARS-CoV Urbani / Binding of serum 62 to looped/cyclic peptides of protein N of SARS-CoV Urbani / Binding of serum London to looped/cyclic peptides of protein N of SARS-CoV Urbani / Binding of serum SARS-green to looped/cyclic peptides of protein N of SARS-CoV Urbani: unit not given here
[4] = system: recombinant human anti-SARS-CoV antibody 03-018; type: binding; set-up: Binding of antibody 03-018 to linear peptides of the N protein of SARS-CoV Urbani / Binding of antibody 03-018 to looped/cyclic peptides of the N protein of SARS-CoV Urbani: unit not given here

Sequence | Binding of Control Serum Blood-Bank to Looped peptides [1] | Binding of Control serum Blood-bank to linear peptides [1] | Binding of Control serum LUMC to linear peptides [1] | Binding of Control serum LUMC to looped peptides [1] | Binding of a rabbit serum to linear peptides of protein N of SARS-CoV Urbani (Rabbit serum linear peptides) [2] | Binding of a rabbit serum to looped/cyclic peptides of protein N of SARS-CoV Urbani (Rabbit serum looped peptides) [2] | Binding of serum 1a to looped/cyclic peptides of protein N of SARS-CoV Urbani [3] | Binding of serum 1b to looped/cyclic peptides of protein N of SARS-CoV Urbani [3] | Binding of serum 2 to looped/cyclic peptides of protein N of SARS-CoV Urbani [3] | Binding of serum 6 to looped/cyclic peptides of protein N of SARS-CoV Urbani [3] | Binding of serum 37 to looped/cyclic peptides of protein N of SARS-CoV Urbani [3] | Binding of serum 62 to looped/cyclic peptides of protein N of SARS-CoV Urbani [3] | Binding of serum London to looped/cyclic peptides of protein N of SARS-CoV Urbani [3] | Binding of serum SARS-green to looped/cyclic peptides of protein N of SARS-CoV Urbani [3] | Binding of serum SARS-yellow to looped/cyclic peptides of protein N of SARS-CoV Urbani [3] | Binding of antibody 03-018 to linear peptides of the N protein of SARS-CoV Urbani [4] | Binding of antibody 03-018 to looped/cyclic peptides of the N protein of SARS-CoV Urbani [4] | also measured
VRGGDGKMKELSPRW | 0.7 | 0.6 | 0.8 | 0.7 | 0.2 | 0.4 | 0.3 | 0.2 | 0.5 | 0.2 | 0.6 | 0.6 | 0.5 | 0.1 | 0.3 | 0.1 | 0.2 | Binding of serum 1a to linear peptides of protein N of SARS-CoV Urbani [3]: 0.2; Binding of serum 1b to linear peptides of protein N of SARS-CoV Urbani [3]: 0.1; Binding of serum 2 to linear peptides of protein N of SARS-CoV Urbani [3]: 0.2; Binding of serum 6 to linear peptides of protein N of SARS-CoV Urbani [3]: 0.2; Binding of serum 37 to linear peptides of protein N of SARS-CoV Urbani [3]: 0.6; Binding of serum 62 to linear peptides of protein N of SARS-CoV Urbani [3]: 0.6; Binding of serum London to linear peptides of protein N of SARS-CoV Urbani [3]: 0.4; Binding of serum SARS-green to linear peptides of protein N of SARS-CoV Urbani [3]: 0.4; Binding of serum SARS-yellow to linear peptides of protein N of SARS-CoV Urbani [3]: 0.7
VTKKSAAEASKKPRQ | 0.6 | 0.9 | 0.9 | 0.7 | 0.1 | 0.6 | 0.3 | 0.2 | 0.6 | 0.3 | 0.6 | 0.4 | 0.5 | 0.6 | 0.7 | 0.1 | 0.2 | Recognition of the peptide by sera of SARS-CoV infected individuals, and form (linear, looped/cyclic) in which it is recognized [3]: recognized in linear form
